Results: PubChem BioAssay AID2384 (Southern Research Specialized Biocontainment Screening …, 2010)

What follows are compounds tested on S. typhi GFP reporter counter-screen, fluorescence, 4 h (assay: inhibitors in S. typhi counter-screen strain, dose response, counter-screen for PhoP regulon inhibitor project, fluorescence, 4 h (AID 2384)).

| SMILES | IC50 |
| --- | --- |
| CN1C(=O)NC(c2ccc(O)cc2)C(C(=O)c2cccs2)C1(O)C(F)(F)F (stereo unspecified) | 19.1 µM |
| OCCN1CCN(Cc2cc(Cl)c3cccnc3c2O)CC1 | 56.6 µM |
| COc1ccc(CNCCc2cccc(F)c2)c2ccccc12 | 61.2 µM |
| C[N+]12CN3CN(CN(C3)C1)C2 | 69.8 µM |
| Nc1ncncc1-c1ccc(Cl)cc1 | 65.5 µM |
| CCCCn1c(NS(=O)(=O)c2ccccc2)c(S(=O)(=O)c2ccc(C)cc2)c2nc3ccccc3nc21 | 9.39 µM |
| CCOC(=O)c1c(N)sc(C(=O)Nc2ccc3c(c2)OCO3)c1C | 132 µM |
| Cc1ccc(C(=O)NNC(=S)NC(=O)COc2ccccc2)cc1 | 63.9 µM |
| CCOC(=O)c1ccc(CNCc2ccc(Br)cc2)cc1 | 45.4 µM |
| COc1ccccc1Nc1c2ccccc2nc2ccccc12 | 99.9 µM |
| C#CCOCCOCCOCCNc1nc(N2CCN(C(=O)CCCCCCCCCCNC(=O)[C@H]([C@@H](C)CC)n3cc(CCCCN=C(N)N)nn3)CC2)nc(N2CCN(C(=O)CCCCCCCCCCNC(=O)[C@H](CCCCN)n3cc(C)nn3)CC2)n1 | 47.3 µM |
| Cc1ccc(-c2csc(NC(=O)C[n+]3cc(-c4ccc(C)cc4)n4c3CCC4)n2)cc1 | 19.3 µM |
| CN(C)CCOC(=O)c1sc2ccccc2c1Cl | 125 µM |
| O=C(CNC(=O)c1cccc(F)c1)N/N=C/c1ccc([N+](=O)[O-])s1 | 36.9 µM |
| CN1CCc2c(sc(NC(=O)c3ccc([N+](=O)[O-])o3)c2C(N)=O)C1 | 17.1 µM |
| NC1=NC[C@@H](Cc2ccc(O)cc2)N1CCCCC1CCCCC1 | 14.8 µM |
| O=[N+]([O-])c1cc(/C=N/Nc2nc3ccccc3[nH]2)c(O)cc1O | 17.8 µM |
| Cc1ccc(O)c(Nc2c3ccccc3nc3ccccc23)c1 | 50.2 µM |
| Nc1nc2ccccc2n1CCOc1ccccc1Cl | 40.7 µM |
| CN(C)CC/C=C1/c2ccccc2Sc2ccc(Cl)cc21 | 30.1 µM |
| COc1ccc(N2CC(C(=O)N/N=C/c3cc([N+](=O)[O-])ccc3O)CC2=O)cc1 (stereo unspecified) | 93.2 µM |

| SMILES | IC50 |
| --- | --- |
| COc1ccc(OCc2n(CC(=O)OC3CC(C)CCC3C(C)C)c3ccccc3[n+]2C)cc1 (stereo unspecified) | 36.6 µM |
| O=C(/C=C/c1ccccc1)NC(=S)NNC(=O)c1cnccn1 | 20.9 µM |
| C#CCOCCOCCOCCNc1nc(N2CCN(C(=O)[C@H]([C@@H](C)CC)n3cc([C@@H](N)Cc4ccc(O)cc4)nn3)CC2)nc(N2CCN(C(=O)[C@H](Cc3cc4ccccc4[nH]3)n3cc([C@@H](N)CC(C)C)nn3)CC2)n1 | 27.2 µM |
| CCOc1cc(CNC(C)(C)CO)cc(Br)c1OCc1ccc(Cl)cc1Cl | 37.3 µM |
| C[C@H]1c2cccc(O)c2C(O)=C2C(=O)C3(O)C(O)=C(C(N)=O)C(=O)[C@@H](N(C)C)[C@@H]3[C@@H](O)[C@@H]21 (stereo partly specified) | 0.82 µM |
| OC1(c2ccc(Cl)cc2)CCN(Cc2c[nH]c3ccccc23)CC1 | 29.8 µM |
| CN1CCN(C2Cc3cc(Cl)ccc3Sc3cc(F)ccc32)CC1 (stereo unspecified) | 22.2 µM |
| O=C(CCN1CCN(C(=O)c2ccccc2)CC1)c1ccc(Br)cc1 | 81.6 µM |
| CC(C)(C)c1ccc(OCCCCCCN2CCNCC2)cc1 | 49.2 µM |
| OC(c1cc(C(F)(F)F)nc2c(C(F)(F)F)cccc12)C1CCCCN1 (stereo unspecified) | 19.1 µM |
| COC(=O)C1=C(C)N(Cc2ccccc2)C(=NCc2cccc(C(F)(F)F)c2)N[C@H]1c1cccc(F)c1 | 35.3 µM |
| O=[N+]([O-])c1ccc(O)c(/C=N/Nc2ccccn2)c1 | 9.31 µM |
| O=C(Nc1cccc(NC(=O)c2ccccc2Cl)c1)c1ccc([N+](=O)[O-])o1 | 100 µM |
| O=C(C[n+]1cc(-c2ccc(Cl)cc2)n2c1CCC2)N1c2ccccc2Sc2ccccc21 | 50.9 µM |
| CC(C)N1CSC(=S)N(Cc2ccccc2)C1 | 49.4 µM |
| Cc1ccc(OCc2nnc(NC(=O)c3cccnc3)s2)cc1 | 52 µM |
| CCN1CCN(CCNC(=O)c2ccc3c(c2)N(Cc2ccc(F)cc2)C(=O)/C(=C/c2ccccc2)S3)CC1 | 45.5 µM |
| Cn1c(SCC(=O)N/N=C/c2ccc([N+](=O)[O-])s2)nnc1-c1ccc(Cl)cc1 | 46.2 µM |
| C1=C(CCNCc2ccccc2)CCCC1 | 16.8 µM |
| COc1c(N2CCN(C(=S)Nc3ccc(F)cc3)C(C)C2)c(F)cc2c(=O)c(C(=O)O)cn(C3CC3)c12 (stereo unspecified) | 18.3 µM |
